Assay results from US12569565B2, “Compositions and methods for the treatment of viral infections” (Cidara Therapeutics, Inc., priority 2018, dated 2026).
pEC50: −log10 of the molar value. Several values for one entry are separate records, joined by “and”; a condition that tells them apart may be missing. Identical values can stand only once. Like-named read-outs stand apart in the source and are kept apart here.

What was measured:
[1] = 1 mg/mL in 1xPBS, over a week at 60° C.; HPLC 240 nm
[2] = tested on: A/Puerto Rico/08/1934 (PR8), H1N1; type: in vivo, female BALB/c mice; conditions: for % Survival: 10 days
[3] = tested on: INFV A H1N1 A/Texas/36/91; assay: Lethal mouse influenza model, Study #1; type: in vivo, female BALB/c mice; conditions: 20 mg/kg B.I.D PO 5 days from 8 h post infection
[4] = tested on: INFV A H3N2 A/Hong Kong/1/68; assay: Lethal mouse influenza model, Study #2; type: in vivo, female BALB/c mice; conditions: 20 mg/kg PO B.I.D for 5 days from 8 h post infection
[5] = tested on: INFV A H1N1 A/Texas/36/91; assay: Lethal mouse influenza model, Study #3 (dosing 28 days before challenge); type: in vivo, female BALB/c mice; conditions: 20 mg/kg PO twice daily 5 days from 8 h post infection
Source text: The experiment comprised 7 groups of 5 mice. At day 0, all mice were challenged with 1×LD90 H1N1 A/Texas/36/91. Groups 1-6 received treatment IV, 28 days before challenge (Table 12). Vehicle (PBS) was included as an additional negative control. […] All mice were monitored for survival (FIGS. 31A-31F) for 15 days after challenge.

[6] = tested on: INFV A H1N1 A/Texas/36/91; assay: Lethal mouse influenza model, Study #4 (treatment window); type: in vivo, female BALB/c mice
Source text: The experiment comprised 13 groups of 5 mice. At day 0, all mice were challenged with 1×LD90 H1N1 A/Texas/36/91. […] Vehicle (PBS) and Fc only were included as negative controls. […] All mice were monitored for survival (FIGS. 32A-32F) for 15 days after challenge.

IAV H1N1 A/Texas/36/91 = tested on: IAV H1N1 A/Texas/36/91; set-up: species or system female BALB/c mice; conditions: mouse, in vivo
[7] = tested on: influenza A/WSN/1933 (H1N1); assay: CPE assay at different multiplicities of infection (Example 94); type: cell-based, influenza A virus; conditions: read-out: EC50 H1N1 A/WSN/1933 (CPE in MDCK cells)
[8] = tested on: Influenza A/Puerto Rico/8/1934 (H1N1); set-up: species or system female BALB/c mice; conditions: mouse, in vivo
[9] = tested on: Influenza B/Brisbane/60/2008; set-up: species or system female BALB/c mice; conditions: mouse, in vivo
[10] = tested on: H1N1 A/Netherlands/602/2009; type: cell-based, influenza A virus
INFV CA/09 virus = type: cell-based, influenza virus
[11] = tested on: Influenza A virus (INFV CA/09); type: cell-based
INFV A (A/CA/09 H1N1) = type: cell-based, influenza A virus
INFV B (B/Brisbane) = type: cell-based, influenza B virus
MDCK cells = conditions: four days post treatment, dilutions starting at 10 μM

## C#CCOCCOCCOCCOCCNC(=O)O[C@@H]([C@@H]1OC(C(=O)O)=C[C@H](NC(=N)N)[C@H]1NC(C)=O)[C@H](O)CO [Int-4]
[1]
  degredation: 15%

## CC(=O)N[C@H]1[C@H]([C@H](OCC(=O)NCCCCNCCCCNC(=O)CO[C@@H]([C@@H]2OC(C(=O)O)=C[C@H](NC(=N)N)[C@H]2NC(C)=O)[C@H](O)CO)[C@H](O)CO)OC(C(=O)O)=C[C@@H]1NC(=N)N [Int-11]
[2]
  % Survival: 0%
[2]; 15 mg/kg
  % Survival: 100%
[2]; mouse, in vivo
  delay in death relative to vehicle and hIgG1 Fc only controls: ≤ 2 days
  greater cumulative dose required for efficacy equivalent to conjugate 6 (mass basis): 500 ×

## C#CCOCCOCCOCCOCCN(C)C(=O)O[C@@H]([C@H]1OC(C(=O)O)=C[C@@H](NC(=N)N)[C@@H]1NC(C)=O)[C@H](O)CO [Int-80]
[1]
  degredation: less than 1%

## CCOC(=O)C1=C[C@@H](OC(CC)CC)[C@H](NC(C)=O)[C@@H](N)C1 [Oseltamivir phosphate]
[3]
  % Survival: 100%
  Mean Survival: 15
[4]
  Mean Survival: 15 days
[5]
  survival: survived
[6]; 20 mg/kg PO bid × 5 days initiated at 48 hrs post-infection
  survival: 0%
[6]; 20 mg/kg PO bid × 5 days initiated at 72 hrs post-infection
  survival: 20%

## CCOC(=O)C1=C[C@@H](OC(CC)CC)[C@H](NC(C)=O)[C@@H](N)C1 [Oseltamivir, oseltamivir]
[4]
  % Survival: 80%
IAV H1N1 A/Texas/36/91
  % Survival (Day 14): 100%
[2]
  % Survival: 20%
[7]; MOI 0.001
  pEC50: 6.28
[7]; MOI 0.01
  pEC50: 5.72
[7]; MOI 0.1
  pEC50: < 5.00
[7]; MOI 1
  pEC50: < 5.00
[8]
  Log reduction (PFU/mL): 0.24 and 0.52
[9]
  Body weights: 89 gm and 85 gm and 79 gm and 100 gm and 98 gm and 97 gm
  survival: 40%
[10]
  EC100 (CPE in MDCK cells): ~1000 nM

## CC(=O)N[C@H]1[C@H]([C@H](O)[C@H](O)CO)OC(C(=O)O)=C[C@@H]1N=C(N)N [Zanamivir, zanamivir]
INFV CA/09 virus
  pEC50: 6.33
[11]
  pEC50: 6.30
INFV A (A/CA/09 H1N1)
  pEC50: 6.58
INFV B (B/Brisbane)
  pEC50: 6.42
[7]; MOI 0.001
  pEC50: 6.86
[7]; MOI 0.01
  pEC50: 6.03
[7]; MOI 0.1
  pEC50: < 5.00
[7]; MOI 1
  pEC50: < 5.00
MDCK cells
  CC50: > 10 µM

## O=C1c2c(O)c(=O)ccn2N([C@@H]2c3ccccc3SCc3c2ccc(F)c3F)[C@@H]2COCCN12 [baloxavir]
[7]; Influenza A virus, MDCK, MOI 0.001
  pEC50: 8.30
[7]; Influenza A virus, MDCK, MOI 0.01
  pEC50: 8.40
[7]; Influenza A virus, MDCK, MOI 0.1
  pEC50: 7.10
[7]; Influenza A virus, MDCK, MOI 1
  pEC50: < 7.00
